This test deals with T1, Jak1 (Homo sapiens, UniProt P23458).
T1 construct: endogenous in cells; host or cells: TF1 cells
Kind of test: Jak1 (PSTAT3 TF1) alpha screen assay: inhibition of IL-6 induced phosphorylation of STAT3 in TF1 cells. Conditions: for EC50: IL-6 induced pSTAT3, TF1 cells; for Tyk2 selectivity over Jak1: calculated from tabulated EC50 data (Jak1 / Tyk2). The class given is cell-based. In outline:
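IL-6-starved TF1 cells were preincubated 30 min at 37 °C with compound (top final 25 μM, 8-point 1:5 series), then stimulated with IL-6 (100 ng/mL final) for 30 min at 37 °C. Lysates were read for pSTAT3 (Tyr705) by AlphaScreen SureFire. EC50 from percent-activity dose-response curves.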

T1 sequence (P23458 whole entry): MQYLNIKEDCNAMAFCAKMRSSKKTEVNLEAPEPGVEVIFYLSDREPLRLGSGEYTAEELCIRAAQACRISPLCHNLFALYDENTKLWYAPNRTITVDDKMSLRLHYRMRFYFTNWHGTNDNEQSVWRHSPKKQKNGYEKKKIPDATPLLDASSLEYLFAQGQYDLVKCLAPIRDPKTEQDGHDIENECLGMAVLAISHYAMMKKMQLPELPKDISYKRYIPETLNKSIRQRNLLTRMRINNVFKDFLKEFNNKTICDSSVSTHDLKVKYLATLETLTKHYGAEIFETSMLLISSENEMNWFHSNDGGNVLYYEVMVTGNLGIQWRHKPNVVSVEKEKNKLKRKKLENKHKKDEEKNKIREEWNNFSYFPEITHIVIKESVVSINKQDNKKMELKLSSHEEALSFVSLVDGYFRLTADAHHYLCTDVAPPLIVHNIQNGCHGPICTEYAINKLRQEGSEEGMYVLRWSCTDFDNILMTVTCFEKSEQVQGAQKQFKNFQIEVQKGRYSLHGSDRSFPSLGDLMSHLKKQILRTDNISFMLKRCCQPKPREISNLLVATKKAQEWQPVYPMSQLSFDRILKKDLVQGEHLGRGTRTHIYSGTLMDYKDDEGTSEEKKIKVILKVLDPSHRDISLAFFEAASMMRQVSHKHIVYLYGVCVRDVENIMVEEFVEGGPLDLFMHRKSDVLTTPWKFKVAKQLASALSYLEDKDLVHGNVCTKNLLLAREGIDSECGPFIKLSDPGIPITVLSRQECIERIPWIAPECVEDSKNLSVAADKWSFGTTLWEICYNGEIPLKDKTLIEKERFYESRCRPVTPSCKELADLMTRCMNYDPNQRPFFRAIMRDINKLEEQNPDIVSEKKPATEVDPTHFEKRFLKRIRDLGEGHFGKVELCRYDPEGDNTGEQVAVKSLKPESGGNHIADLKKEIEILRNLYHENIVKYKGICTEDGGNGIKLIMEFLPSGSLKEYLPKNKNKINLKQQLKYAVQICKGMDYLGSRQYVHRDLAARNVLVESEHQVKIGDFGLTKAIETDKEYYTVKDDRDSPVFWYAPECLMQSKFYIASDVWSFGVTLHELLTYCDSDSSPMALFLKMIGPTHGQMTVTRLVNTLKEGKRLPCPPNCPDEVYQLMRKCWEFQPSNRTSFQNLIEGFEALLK

As to `COCc1cc(-c2cn(C)c3cnc(NC(C)=O)cc23)nc([C@]2([C@@H](C)O)CCOC2)c1` [Example 22.4, N-(3-(6-((R)-3-((R)-1-hydroxyethyl)tetrahydrofuran-3-yl)-4-(methoxymethyl)pyridin-2-yl)-1-methyl-1H-pyrrolo[2,3-c]pyridin-5-yl)acetamide], the EC50 was found to be 27.2 µM and the “Tyk2 selectivity over Jak1” value is 243-fold.

As to `COCc1cc(-c2cn(C)c3cnc(NC(C)=O)cc23)nc([C@]2([C@H](C)O)CCOC2)c1` [Example 22.3, N-(3-(6-((R)-3-((S)-1-hydroxyethyl)tetrahydrofuran-3-yl)-4-(methoxymethyl)pyridin-2-yl)-1-methyl-1H-pyrrolo[2,3-c]pyridin-5-yl)acetamide], the half-maximal effective concentration (EC50) came to 12.9 µM and the “Tyk2 selectivity over Jak1” value was 88-fold.

These data come from patent US10508113B2, “Inhibitors of tyrosine kinase 2 mediated signaling” (AbbVie Inc., priority 2018, dated 2019).
